In patent US12441757B2, “Platform for screening NAD+ binding proteins in a cellular context” (OREGON HEALTH & SCIENCE UNIVERSITY, priority 2020, dated 2025):

Target: T1, PARP-10 (Homo sapiens, UniProt Q53GL7)
T1 construct: Full length His6-PARP-1 and His6-SUMO-PARP-10 proteins we expressed and purified; His6 (N); SUMO (N); made in house
T1 sequence (Q53GL7 1-1025): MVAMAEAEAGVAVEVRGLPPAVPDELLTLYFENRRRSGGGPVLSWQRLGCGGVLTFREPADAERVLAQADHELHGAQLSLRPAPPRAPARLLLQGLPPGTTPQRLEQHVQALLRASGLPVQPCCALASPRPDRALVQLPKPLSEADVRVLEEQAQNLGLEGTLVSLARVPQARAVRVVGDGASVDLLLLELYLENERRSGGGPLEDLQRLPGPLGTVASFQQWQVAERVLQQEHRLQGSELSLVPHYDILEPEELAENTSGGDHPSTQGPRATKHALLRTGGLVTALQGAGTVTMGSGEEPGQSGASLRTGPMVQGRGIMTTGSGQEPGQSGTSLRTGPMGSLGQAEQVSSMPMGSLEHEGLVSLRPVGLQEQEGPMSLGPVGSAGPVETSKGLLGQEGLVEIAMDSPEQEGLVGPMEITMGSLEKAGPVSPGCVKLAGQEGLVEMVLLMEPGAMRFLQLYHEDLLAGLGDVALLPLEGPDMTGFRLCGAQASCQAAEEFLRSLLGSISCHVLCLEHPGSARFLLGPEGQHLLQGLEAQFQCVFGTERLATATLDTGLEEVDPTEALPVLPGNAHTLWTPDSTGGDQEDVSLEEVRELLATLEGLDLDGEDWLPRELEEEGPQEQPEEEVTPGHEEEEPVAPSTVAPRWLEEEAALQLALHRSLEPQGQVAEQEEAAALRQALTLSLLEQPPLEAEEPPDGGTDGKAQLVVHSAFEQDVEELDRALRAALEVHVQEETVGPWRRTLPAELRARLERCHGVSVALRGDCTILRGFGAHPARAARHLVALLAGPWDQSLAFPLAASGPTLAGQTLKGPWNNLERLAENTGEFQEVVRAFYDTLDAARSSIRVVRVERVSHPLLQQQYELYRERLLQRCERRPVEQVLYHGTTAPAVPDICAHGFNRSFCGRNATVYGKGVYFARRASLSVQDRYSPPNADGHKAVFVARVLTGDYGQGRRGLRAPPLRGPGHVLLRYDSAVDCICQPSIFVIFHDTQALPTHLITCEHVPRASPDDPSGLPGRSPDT
Assay: In vitro PARP-10 auto-MARylation activity assay
Format: biochemical
Description: FIG. 5. A clickable NAD^+ PAL probe (2-ad-BAD) inhibits PARP-1 and PARP-10 activity in concentration response. (FIG. 5A) 50 nM of recombinant His6-PARP-1 was incubated with 10 μg/mL activated DNA in 100 mM NaCl, 50 mM HEPES [pH 7.4], 4 mM MgCl2, 0.2 mM TCEP for 10 min, then treated with indicated competitor (BAD or the PARP-1 inhibitor NMS-P118) for additional 10 min. 50 μM NAD^+ was then added to initiate auto-PARylation of PARP-1. After 10 min, the reaction was quenched by addition of 4× Laemmli sample buffer and boiling at 95° C. for 5 min. Protein samples were separated by SDS-PAGE, transferred onto nitrocellulose and probed with indicated antibodies. (FIG. 5B) Experiments were performed essentially as in (5A) with the exception that damaged DNA was omitted and the PARP-10 inhibitor ITK6 was used instead of NMS-P118. (FIG. 5C) Densitometry analyses of (5A) and (5B) comparing inhibitory effect of BAD on PARP-1 and PARP-10 auto-ADP-ribosylation. Data are mean±SEM of 3 independent experiments. […]
Samples were run on 10% or 12% acrylamide gels for ˜1 h at 180 V in Mini-PROTEAN Tetra cell (Biorad). […] Band intensities we quantified with ImageJ.

## NC(=O)c1cccc([C@@H]2O[C@H](COP(=O)(O)OP(=O)(O)OC[C@H]3O[C@@H](n4cnc5c(N)ncnc54)[C@H](O)[C@@H]3O)[C@@H](O)[C@H]2O)c1 [BAD, benzamide adenine dinucleotide]
auto-ADP-ribosylation assays, densitometry
  relative potency against PARP-10 compared to PARP-1: the opposite was true
Dose response, 50 μM NAD^+, anti-ADPr immunoblot
  inhibition of PARP-10 auto-MARylation: inhibited
